Measured values from patent publication US4690925A, “(2-Oxo-1,2,3,5-tetrahydroimidazo-[2,1-B]quinazolinyl) oxyalkylamides properties having phosphodiosterase inhibiting” (Syntex (U.S.A.) Inc., priority 1985, dated 1987).

Legend:
[1] = molecular target: T1, Human platelet cyclic AMP phosphodiesterase (Homo sapiens, UniProt Q14432); experiment: Cyclic AMP phosphodiesterase assay, human platelet enzyme (Table I); assay type: biochemical; details: for IC50: 1 μM cyclic AMP as substrate, soluble enzyme from human platelets, read-out: Human Platelet IC50 (inhibition of cyclic AMP phosphodiesterase); for Relative Potency: relative to theophylline, which is assigned a value of 1 on human platelet phosphodiesterase
T1 construct: from tissue; host or cells: human platelets from donors, soluble fraction after freeze-thaw and hypotonic lysis
T1 sequence (Q14432 whole entry): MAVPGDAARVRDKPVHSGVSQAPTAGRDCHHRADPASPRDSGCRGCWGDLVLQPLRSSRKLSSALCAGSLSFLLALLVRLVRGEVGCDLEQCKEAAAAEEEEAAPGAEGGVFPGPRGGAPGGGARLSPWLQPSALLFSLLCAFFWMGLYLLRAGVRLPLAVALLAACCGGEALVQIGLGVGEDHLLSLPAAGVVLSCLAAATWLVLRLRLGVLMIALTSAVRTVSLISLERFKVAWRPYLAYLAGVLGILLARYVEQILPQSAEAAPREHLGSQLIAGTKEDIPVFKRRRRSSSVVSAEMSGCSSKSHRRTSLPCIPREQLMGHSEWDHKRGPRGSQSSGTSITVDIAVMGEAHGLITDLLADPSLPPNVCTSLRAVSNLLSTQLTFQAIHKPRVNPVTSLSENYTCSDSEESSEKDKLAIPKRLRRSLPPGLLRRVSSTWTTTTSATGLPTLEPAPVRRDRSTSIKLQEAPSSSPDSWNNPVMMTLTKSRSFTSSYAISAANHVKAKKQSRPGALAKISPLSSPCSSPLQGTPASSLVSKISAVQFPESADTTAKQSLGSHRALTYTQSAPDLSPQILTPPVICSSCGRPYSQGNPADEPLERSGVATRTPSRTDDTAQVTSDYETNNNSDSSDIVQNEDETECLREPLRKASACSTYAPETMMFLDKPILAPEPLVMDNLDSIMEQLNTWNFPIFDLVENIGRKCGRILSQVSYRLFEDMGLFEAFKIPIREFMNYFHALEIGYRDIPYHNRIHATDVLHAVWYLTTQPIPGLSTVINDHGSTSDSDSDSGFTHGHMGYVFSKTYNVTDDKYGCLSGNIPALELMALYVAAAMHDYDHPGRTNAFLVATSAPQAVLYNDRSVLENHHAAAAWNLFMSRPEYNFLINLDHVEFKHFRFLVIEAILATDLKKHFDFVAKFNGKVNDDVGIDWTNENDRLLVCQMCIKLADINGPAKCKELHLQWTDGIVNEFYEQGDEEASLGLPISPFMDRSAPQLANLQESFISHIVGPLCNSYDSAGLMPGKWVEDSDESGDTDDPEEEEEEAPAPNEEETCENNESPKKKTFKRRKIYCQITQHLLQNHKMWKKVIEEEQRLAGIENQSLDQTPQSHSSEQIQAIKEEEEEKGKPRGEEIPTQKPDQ
Method: (§1) The inhibition of cyclic AMP phosphodiesterase activity by the subject compounds was assayed by the method of Filburn and Karn, Analyt. Biochem., 52: 505-516 (1973), using 1 μM cyclic AMP as the substrate. Human platelet cyclic AMP phosphodiesterase was obtained from human donors. Platelets were isolated and washed by centrifugation, the membranes ruptured by a sequential freeze-thaw procedure and hypotonic lysis and the soluble enzyme isolated by high speed centrifugation. The enzyme was stored in aliquots at -20° C.
(§2) This table contains the IC50 values for human platelet phosphodiesterase and IC25 values for rat heart phosphodiesterase.

Soluble dog heart PDE = experiment: Cyclic AMP phosphodiesterase inhibition, soluble dog heart PDE (Table I); assay type: biochemical; details: soluble dog heart PDE (footnote a)
Method: as §1, §2
^a Soluble dog heart PDE

Mongrel dogs = experiment: Inotropic activity in anesthetized mongrel dogs (Table II); assay type: in vivo, dog; details: 1 mg/kg i.v., suspended in carboxymethylcellulose, vagotomized dogs
Method: Mongrel dogs were anesthetized intravenously with 35 mg/kg sodium pentobarbital and supplemented as needed. Blood pressure was measured with a Statham pressure transducer via a cannula inserted from a femoral artery into the abdominal aorta. Heart rate was recorded by a cardiotachometer from a lead II electrocardiogram. Right ventricular contractile force was recorded from a Walton-Brodie strain gauge sutured to the right ventricle following a midsternal thoracotomy. A Harvard respirator was used to ventilate the dogs with room air through an endotracheal tube. Each dog was bilaterally vagotomized. Following a midline laparotomy, a cannula was sutured into the duodenum for intraduodenal administration of test compound. A femoral vein was cannulated for administration of isoproterenol. All data were recorded on a Beckman R611 Dynograph.
To assess the responsiveness of each dog, isoproterenol was given intravenously at half-log interval doses from 0.007 to 6.67 μg/kg. The test compound was then administered intravenously at 1 mg/kg.

Soluble rat heart PDE = experiment: Cyclic AMP phosphodiesterase inhibition, soluble rat heart PDE (Table I); assay type: biochemical; details: soluble rat heart PDE (footnote b)
Method: as §1, §2
^b Soluble rat heart PDE

Lewis Lung Carcinoma = experiment: Antimetastatic activity against Lewis Lung Carcinoma (spontaneous metastases) (Table III); assay type: in vivo, mice (female, C57B1/6); details: 5 mg/kg oral, every other day, 20 to 21 days
Method: Mice (female, C57B1/6, 16-18 g) were inoculated subcutaneously between the inguinal and axillary areas with 0.2 ml of a freshly prepared tumor brei. Control mice were treated with vehicle. Other mice were treated orally with test compound in suspension in 0.5% carboxymethylcellulose (CMC). Treatments were initiated one day after tumor implanation, and continued every other day throughout the experiment. 20 to 21 days after implantation of the tumor, mice were sacrificed, the primary tumor was weighed, and the number of lung metastases was determined by counting under a dissecting microscope.

| Structure (SMILES) | IC50 [1] | Relative Potency [1] | Heart IC25 (inhibition of cyclic AMP phosphodiesterase), soluble dog heart PDE (Soluble dog heart PDE) | Blood Pressure, peak effect (Mongrel dogs) | Heart Rate, peak effect (Mongrel dogs) | Rt. Ventricular Contractile Force, peak effect (Mongrel dogs) | Heart IC25 (inhibition of cyclic AMP phosphodiesterase), soluble rat heart PDE (Soluble rat heart PDE) | Number of Pulmonary Metastases, Range (Lewis Lung Carcinoma; control range 0-29) | Number of Pulmonary Metastases, Median (Lewis Lung Carcinoma; p < 0.05, control median 5) |
| --- | --- | --- | --- | --- | --- | --- | --- | --- | --- |
| NC(=O)CN(C(=O)CCCOc1ccc2c(c1)CN1CC(=O)NC1=N2)C1CCCCC1 [2-(N-cyclohexyl-4-(2-oxo-1,2,3,5-tetrahydroimidazo[2,1-b]quinazolin-7-yl)oxybutyramidyl)acetamide] | 11 nM | 24,500 | 100 nM |  |  |  |  |  |  |
| O=C(O)CN(C(=O)CCCOc1ccc2c(c1)CN1CC(=O)NC1=N2)C1CCCCC1 [2-(N-cyclohexyl-4-(2-oxo-1,2,3,5-tetrahydroimidazo[2,1-b]quinazolin-7-yl)oxybutyramidyl)acetic acid] | 5 nM | 54,000 |  | 32 % of Max. Isoproterenol | 30 % of Max. Isoproterenol | 33 % of Max. Isoproterenol | 100 nM | 0-11 | 0 |
| COC(=O)CN(C(=O)CCCOc1ccc2c(c1)CN1CC(=O)NC1=N2)C1CCCCC1 [Methyl 2-(N-cyclohexyl-4-(2-oxo-1,2,3,5-tetrahydroimidazo[2,1-b]quinazolin-7-yl)oxybutyramidyl)acetate] | 2 nM | 135,000 | 10.0 nM |  |  |  |  |  |  |
